Results on nine molecules are retold here after PMC8533089, “Characteristics of Neurokinin-3 Receptor and Its Binding Sites by Mutational Analysis” (Biology, 2021).

One experiment relates to LH plasma levels. The experiment can be described thus: In vivo effect of NKB antagonists on LH plasma levels (ELISA). Further details: species or system adult male tilapia (Oreochromis niloticus). The following applies: antagonist 100 µg/kg BW IP, then sGnRHa 10 µg/kg BW after 0.5 h; n = 10. The procedure:
(§1) The levels of FSH, LH and GH in the plasma were measured by specific competitive enzyme-linked immunosorbent assay (ELISA), developed for tilapia, based on recombinant gonadotropins or GH that were created by using the yeast Pichia pastoris. For the ELISAs, we used primary antibody antisera against GH [51], FSHβ [52], or against rtLHβ [53], and rtFSHβα [52], rtLHβ [53] or tiGH for the standard curves. Sensitivity for the plasma measurements were 15.84 pg/mL for LH, 0.24 pg/mL for FSH and 30.0 pg/mL for GH. The inter-assay coefficient of variation (CV) was 14.8, 12.5, and 13.0%, while intra-assay CV was 7.2, 8.0, and 8.0% for LH, FSH and GH, respectively.
(§2) Adult male tilapia (BW 89.29 ± 32.93 g; gonado-somatic index (GSI) 0.24% ± 0.40%) were injected IP (intraperitoneal) with NKB antagonists, SB-222200 or Osanetant (100 µg/kg BW), and after 0.5 h, a second injection of sGnRHa (10 µg/kg BW) was added. Control groups were injected with sGnRHa ([DAla^6, Pro^9-Net]-mammalian GnRH; Bachem, Budendorf, Switzerland) 10 µg/kg BW) as a positive control. The fish were bled from the caudal blood vessels into heparinized syringes 0, 0.5, 2, 6 and 24 h after injection. This time course is according to standard protocols used previously to test the effect of GnRH on circulating levels of LH, FSH, and GH in tilapia. Blood samples were collected from the caudal vasculature and centrifuged (3200 rpm for 30 min at 4 °C) (Centrifuge: Fresco 17, Rotor: 75003424, Thermo Scientific™, Langenselbold Germany) to obtain plasma samples, which were stored at −20 °C until assayed. Three independent experiments were carried out for the in-vivo studies.

The subject of another experiment is FSH plasma levels. Briefly: In vivo effect of NKB antagonists on FSH plasma levels (ELISA). Also noted: species or system adult male tilapia (Oreochromis niloticus). Conditions: antagonist 100 µg/kg BW IP, sGnRHa 10 µg/kg BW after 0.5 h; n = 10. On the procedure:
as §1
as §2, with “Blood samples were collected from the caudal vasculature and centrifuged (3200 rpm for 30 min at 4 °C) (Centrifuge: Fresco 17, Rotor: 75003424, Thermo Scientific™, Langenselbold Germany) to obtain plasma samples, which were stored at −20 °C until assayed. Three independent experiments were carried out for the in-vivo studies.” left out

A further experiment addresses tiTac3Ra (Oreochromis niloticus, UniProt A0A075QPN8). Briefly: CRE-Luc antagonist assay, wild-type receptor, COS-7. The following applies: for IC50: antagonist 0.001–1000 μM added 10 min before peptide, COS-7, CRE-Luc. Type of experiment: cell-based, tilapia (Oreochromis niloticus). On the procedure: (§3) In order to study the signaling pathways of the mutant tiTac3Ra, the entire coding regions of tiTac3Ra (GenBank accession no. KF471674), and both of the mutant receptors were inserted into pcDNA3.1 (Invitrogen, Massachusetts, United States). We used a sensitive luciferase (LUC) reporter gene assay. […] Transient transfection, cell procedures and stimulation protocols followed the procedures previously described. Briefly, 3 μg of each construct, together with 3 μg of a luciferase reporter plasmid were transiently transfected into COS-7 cells (American Type Culture Collection, Manassas, VA, USA). Forty-eight hours after transfection, cells transfected with Tac3Ra plasmid fused with GFP were applied with an Hoechst dye (Invitrogen, Massachusetts, United States; diluted 1:1000) in order to mark nuclei in the culture for transfection analysis.
Non-peptide molecules, SB-222200 (Sigma, Merck, Darmstadt, Germany) and Osanetant (Axon Medchem, Reston, VA, USA), known to antagonize mammalian NK3R [49] were studied for their ability to antagonize tiTac3Ra, which was activated with a fixed dose of the native ligands (10 nM tiNKB or tiNKF), combined with increasing doses of the antagonists (0.001–1000 μM). The antagonists were added 10 min prior to the addition of the peptides. IC50 values were calculated from concentration response curves by means of computerized nonlinear curve-fitting with Prism version 9 software (GraphPad, San Diego, CA, USA). All experiments were repeated at least 3 times using cells from independent transfections, each performed in triplicate.
NKB antagonists, SB-222200 (Figure 7A) and Osanetant (Figure 7B) were added in increasing concentrations (0.001–1000 μM) to transfected COS-7 that expressed tiTac3Ra. Ten minutes after the induction of the antagonists, the ligand, tiNKB or tiNKF (10 nM) was added to the media.

For a further experiment, the system named is FSH and LH release. Conditions: in vivo and in vitro; cited from earlier work. An excerpt: (§4) The effect of NKB/NKF peptides on gonadotropin secretion in fish is already well established. The first indication that NKB is widely expressed in fish species and has a stimulatory reproductive effect was shown in zebrafish, goldfish, and tilapia. […] Osetanant re ...

Another experiment has as its system FSH levels. The following applies: daily oral dosing throughout the menstrual cycle; cited from earlier work.
Description: as §4

The target of experiment [1] is native tilapia Tac3Ra (WT). The experiment can be described thus: CRE-Luc receptor transactivation assay, wild-type receptor, COS-7. Type of experiment: cell-based, tilapia (Oreochromis niloticus). The procedure: as §3
(§5) Cells transfected with the tiTac3Ra construct and luciferase reporter plasmid were treated with tilapia NKB (tiNKB) and tiNKF at increasing doses (0.2–1000 nM). Luciferase activity (Luc) was measured, and compared to basal treatment, and the maximal effect (Luc fold activation) was calculated for each treatment.

The next experiment concerns tiTac3Ra mutant M289A. The experiment can be described thus: CRE-Luc receptor transactivation assay, M289A mutant, COS-7. Type of experiment: cell-based, tilapia (Oreochromis niloticus).
Description: (§6) The expression vector for tilapia tiTac3Ra (GenBank accession no. KF471674) was modified with the Stratagene QuikChange mutagenesis kit (Stratagene, La Jolla, CA, USA), according to the manufacturer’s instructions using two complementary primers (Table 1). The procedure included 18 PCR cycles as specified by the manufacturer’s manual, and the use of Pfu polymerase for the reaction. The mutated construct was then digested with the restriction enzyme DpnI, which is specific to methylated and hemi-methylated DNA, to digest the template and to select the mutation-containing synthesized DNA. The vector was then transfected into XL1 competent cells (E.coli). Two colonies were sequenced and confirmed to contain the mutation without any undesired misincorporation of nucleotides.
(§7) In order to study the signaling pathways of the mutant tiTac3Ra, the entire coding regions of tiTac3Ra (GenBank accession no. KF471674), and both of the mutant receptors were inserted into pcDNA3.1 (Invitrogen, Massachusetts, United States). We used a sensitive luciferase (LUC) reporter gene assay. […]
as §5

In the next experiment the test system is tiTac3Ra mutant F251A. The experiment can be described thus: CRE-Luc receptor transactivation assay, F251A mutant, COS-7. The experiment is classed as cell-based, tilapia (Oreochromis niloticus).
Description: as §6, §7, §5

Experiment [2] concerns the target tiTac3Ra M289A mutant (Nile tilapia (Oreochromis niloticus)).
Experiment [3] concerns the target tiTac3Ra F251A mutant (Nile tilapia (Oreochromis niloticus)).
For experiment [4], the target named is tilapia Tachykinin 3 receptor a (tiTac3Ra), wild type (Nile tilapia (Oreochromis niloticus)).

As usually defined, the IC50 is the point on the concentration scale where inhibition reaches its midpoint. Usually EC50 stands for the midpoint of the concentration-response curve.

Read-outs that look alike come from different tables or passages of the source. Where no end group is shown, it is not given here.

Chain of tiTac3Ra (A0A075QPN8 entry or part of it): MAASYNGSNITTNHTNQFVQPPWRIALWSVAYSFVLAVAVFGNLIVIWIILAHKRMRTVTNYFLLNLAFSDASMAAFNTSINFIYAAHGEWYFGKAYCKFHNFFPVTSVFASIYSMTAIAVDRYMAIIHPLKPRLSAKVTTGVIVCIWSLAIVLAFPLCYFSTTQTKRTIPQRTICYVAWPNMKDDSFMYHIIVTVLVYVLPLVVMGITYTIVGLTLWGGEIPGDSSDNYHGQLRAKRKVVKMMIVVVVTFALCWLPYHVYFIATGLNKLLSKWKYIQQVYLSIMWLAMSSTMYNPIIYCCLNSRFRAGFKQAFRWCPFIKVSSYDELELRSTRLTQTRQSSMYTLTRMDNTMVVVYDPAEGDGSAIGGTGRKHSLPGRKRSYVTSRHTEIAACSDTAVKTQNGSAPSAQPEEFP

As to `CC(=O)N(C)C1(c2ccccc2)CCN(CCC[C@]2(c3ccc(Cl)c(Cl)c3)CCCN(C(=O)c3ccccc3)C2)CC1` [Osanetant], in the experiment on LH plasma levels, the “LH release, combination with sGnRHa” value was “no inhibitory effects on LH plasma levels”. Moreover, in the experiment on FSH plasma levels, the “FSH levels, 2 h post injection, combination with sGnRHa” value was “increased FSH levels”. Moreover, the IC50 amounted to 212000 nM at tiTac3Ra (10 nM tiNKB, read-out: IC50 versus tiNKB) and 122000 nM on tiTac3Ra (10 nM tiNKF, read-out: IC50 versus tiNKF). The “inhibitory effect on Tac3Ra activation” value against tiTac3Ra (in words) is “strong inhibitory effect”.
For the molecule “Succ-Asp-Ile-Phe-N(Me)Ile-Gly-Leu-Met-NH2 [tiNKB analog, tiNKB analog (Succ-Asp-Ile-Phe-N(Me)Ile-Gly-Leu-Met-NH2)]”, in the experiment with FSH and LH release, the “FSH and LH release” value was “significantly increased FSH and LH release both in-vivo and in-vitro”.
For the molecule “Succ-Asp-Phe-N(Me)Val-Gly-Leu-Met-NH2 [zfNKBb analog, zfNKBb analog (Succ-Asp-Phe-N(Me)Val-Gly-Leu-Met-NH2)]”, in the experiment on FSH and LH release, the “FSH and LH release” value was “significantly increased FSH and LH release both in-vivo and in-vitro”.
`Cc1nsc(-c2nnc3n2CCN(C(=O)c2ccc(F)cc2)[C@@H]3C)n1` [ESN364]: the FSH levels entry in the experiment on FSH levels was “did not alter FSH levels”.
Turning to “pyroglutaminated [p]-EMDDIFIGLM-NH2 [tiNKB, native tilapia Neurokinin B peptide, synthesized by GL Biochem]”, the EC50 in experiment [1] (CRE-Luc, COS-7, 0.2–1000 nM, calculated when max effect >2.0) was 2.48 ± 0.05 nM. The Min effective dose in [1] (CRE-Luc, COS-7, WT) is 0.316 nM. The “Max effect (Luc fold activation)” value was 3.36 ± 0.46 Luc fold activation in [1] (WT, COS-7, CRE-Luc, vs basal, 0.2–1000 nM); 1.71 ± 0.46 Luc fold activation with tiTac3Ra mutant M289A (M289A, COS-7, CRE-Luc, vs basal, 0.2–1000 nM); 2.0 ± 0.32 Luc fold activation with tiTac3Ra mutant F251A (F251A, COS-7, CRE-Luc, vs basal, 0.2–1000 nM). Also, the “receptor activity of mutant versus WT (CRE-luciferase)” value is on record as “substantial decrease in receptor activity” with tiTac3Ra mutant M289A (Met289^7.43Ala, 0.2–1000 nM peptide) and “substantial decrease in receptor activity” in the experiment on tiTac3Ra mutant F251A (Phe251^6.44Ala, 0.2–1000 nM peptide).
For the molecule “Succ-Asp-Ser-Phe-N(Me)Val-Gly-Leu-Met-NH2 [NKF analog, NKF analog (Succ-Asp-Ser-Phe-N(Me)Val-Gly-Leu-Met-NH2)]”, in the experiment on FSH and LH release, the “FSH and LH release” value is “significantly increased FSH and LH release both in-vivo and in-vitro”.
In the case of “Succ-Asp-Ile-Phe-N(Me)Val-Gly-Leu-Met-NH2 [zfNKBa analog, zfNKBa analog (Succ-Asp-Ile-Phe-N(Me)Val-Gly-Leu-Met-NH2)]”, the “FSH and LH release” value with FSH and LH release was “significantly increased FSH and LH release both in-vivo and in-vitro”.
Consider YNDLDYDSFVGLM-NH2 [Tilapia NKF (neurokinin F)], for which the Max effect (Luc fold activation), CRE-luciferase receptor transactivation in transfected COS-7 cells, peptide 0.2-1000 nM (Luc fold activation) in experiment [2] was found to be 1.84. This molecule also yielded a Max effect (Luc fold activation), CRE-luciferase receptor transactivation in transfected COS-7 cells, peptide 0.2-1000 nM (Luc fold activation) in experiment [3] of 1.99. Moreover, in experiment [4], the EC50 (nM) of CRE-luciferase receptor transactivation in transfected COS-7 cells, peptide 0.2-1000 nM amounted to 65.2 nM; the Max effect (Luc fold activation), CRE-luciferase receptor transactivation in transfected COS-7 cells, peptide 0.2-1000 nM (Luc fold activation) stood at 3.87; the Min effective dose (nM), CRE-luciferase receptor transactivation in transfected COS-7 cells was found to be 0.316 nM.

B1: Tilapia NKB (neurokinin B) (peptide)
peptide: EMDDIFIGLM
HELM: PEPTIDE1{[Glp].M.D.D.I.F.I.G.L.M.[am]}$$$$V2.0
SMILES: CC[C@H](C)[C@H](NC(=O)[C@H](Cc1ccccc1)NC(=O)[C@@H](NC(=O)[C@H](CC(=O)O)NC(=O)[C@H](CC(=O)O)NC(=O)[C@H](CCSC)NC(=O)[C@@H]1CCC(=O)N1)[C@@H](C)CC)C(=O)NCC(=O)N[C@@H](CC(C)C)C(=O)N[C@@H](CCSC)C(N)=O
As to B1, the Max effect (Luc fold activation), CRE-luciferase receptor transactivation in transfected COS-7 cells, peptide 0.2-1000 nM (Luc fold activation) in experiment [2] turned out to be 1.71. Moreover, the Max effect (Luc fold activation), CRE-luciferase receptor transactivation in transfected COS-7 cells, peptide 0.2-1000 nM (Luc fold activation) in experiment [3] turned out to be 2. In experiment [4], this molecule registered an EC50 (nM) of CRE-luciferase receptor transactivation in transfected COS-7 cells, peptide 0.2-1000 nM of 2.48 nM; a Max effect (Luc fold activation), CRE-luciferase receptor transactivation in transfected COS-7 cells, peptide 0.2-1000 nM (Luc fold activation) of 3.36; a Min effective dose (nM), CRE-luciferase receptor transactivation in transfected COS-7 cells of 0.316 nM.
